Data from patent publication US7977322B2 (Vertex Pharmaceuticals Incorporated, priority 2004, dated 2011).

Molecular target: T1, ΔF508-CFTR (Homo sapiens, UniProt P13569, DEL508-508)
T1 construct: expressed in transfected cells
Assay: Membrane potential optical (FRET/VIPR) assay, identification of correction compounds
Format: cell-based
Details: Table 3, assay not given; for Emax: read-out: % Activity / % Efficacy (relative efficacy)
Procedure, shortened: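 NIH3T3 mouse fibroblasts stably expressing ΔF508-CFTR were exposed to compound for 16 h at 37° C in serum-free medium, then loaded with DiSBAC2(3)/CC2-DMPE. After addition of 10 μM forskolin plus 20 μM genistein in Cl⁻-free gluconate bath (pH 7.4), depolarization from Cl⁻ efflux was read by FRET (VIPR II).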

T1 sequence (P13569 with tags, fused parts or gaps DEL508-508): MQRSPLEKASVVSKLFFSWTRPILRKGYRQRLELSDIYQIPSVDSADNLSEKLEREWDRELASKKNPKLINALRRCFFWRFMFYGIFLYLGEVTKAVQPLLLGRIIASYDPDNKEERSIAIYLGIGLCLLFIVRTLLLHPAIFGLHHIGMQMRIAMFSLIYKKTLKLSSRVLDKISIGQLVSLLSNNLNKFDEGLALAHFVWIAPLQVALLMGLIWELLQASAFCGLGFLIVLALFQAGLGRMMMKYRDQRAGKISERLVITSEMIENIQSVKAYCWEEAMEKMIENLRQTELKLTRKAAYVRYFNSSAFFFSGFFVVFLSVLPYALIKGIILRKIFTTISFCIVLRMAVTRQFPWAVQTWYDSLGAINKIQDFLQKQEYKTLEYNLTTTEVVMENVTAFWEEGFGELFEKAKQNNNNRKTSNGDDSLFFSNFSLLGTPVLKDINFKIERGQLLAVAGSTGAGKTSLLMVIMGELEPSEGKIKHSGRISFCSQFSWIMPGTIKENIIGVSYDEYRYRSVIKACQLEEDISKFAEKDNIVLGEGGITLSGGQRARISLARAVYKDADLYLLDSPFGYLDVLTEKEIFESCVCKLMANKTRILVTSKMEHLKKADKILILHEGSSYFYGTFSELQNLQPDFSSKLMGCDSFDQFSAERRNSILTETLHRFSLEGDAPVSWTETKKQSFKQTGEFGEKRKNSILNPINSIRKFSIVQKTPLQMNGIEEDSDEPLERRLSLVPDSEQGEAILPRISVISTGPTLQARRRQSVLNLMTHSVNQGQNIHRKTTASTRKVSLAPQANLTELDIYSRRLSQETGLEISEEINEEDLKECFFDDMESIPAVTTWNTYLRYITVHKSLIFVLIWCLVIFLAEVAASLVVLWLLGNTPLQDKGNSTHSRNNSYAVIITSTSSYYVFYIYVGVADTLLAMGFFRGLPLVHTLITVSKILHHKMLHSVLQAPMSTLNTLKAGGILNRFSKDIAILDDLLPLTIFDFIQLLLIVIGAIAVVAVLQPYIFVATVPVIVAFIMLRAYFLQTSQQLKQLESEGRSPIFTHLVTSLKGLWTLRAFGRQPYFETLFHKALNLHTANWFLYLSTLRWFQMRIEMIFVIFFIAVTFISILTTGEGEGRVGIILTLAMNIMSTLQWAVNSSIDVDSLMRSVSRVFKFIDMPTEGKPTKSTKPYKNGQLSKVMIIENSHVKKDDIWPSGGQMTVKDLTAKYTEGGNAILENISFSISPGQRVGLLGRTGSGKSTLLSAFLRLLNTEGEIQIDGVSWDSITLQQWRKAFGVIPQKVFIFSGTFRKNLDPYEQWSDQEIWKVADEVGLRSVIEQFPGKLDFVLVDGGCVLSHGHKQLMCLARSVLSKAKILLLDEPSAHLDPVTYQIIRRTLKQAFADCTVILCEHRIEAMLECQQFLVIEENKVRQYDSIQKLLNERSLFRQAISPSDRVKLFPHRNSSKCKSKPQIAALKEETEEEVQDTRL

SMILES | EC50 [µM] | Emax [%] | % Activity / % Efficacy (relative efficacy)
C=CCOC(c1cnc(NC(=O)C2(c3ccc4c(c3)OCO4)CC2)s1)c1ccccc1Cl (centres unmarked) [Example 251] | < 10 | > 100 | 
COC[C@@H]1CCCN1C(c1cnc(NC(=O)C2(c3ccc4c(c3)OCO4)CC2)s1)C(C)(C)C (some centres unmarked) [Example 387] | 10 to 25 | > 100 | 
COc1ccccc1C1(c2cnc(NC(=O)C3(c4ccc5c(c4)OCO5)CC3)s2)CC1 [Example 245] | < 10 |  | +++ (“+++” means>100%)
CN(C)C(Cc1ccccc1Cl)c1cnc(NC(=O)C2(c3ccc4c(c3)OCO4)CC2)s1 (centres unmarked) [Example 457] | < 10 | > 100 | 
CCN(CCO)C(c1cnc(NC(=O)C2(c3ccc4c(c3)OCO4)CC2)s1)c1ccccc1Cl (centres unmarked) [Example 410] | < 10 | > 100 | 
CC(C)(C)C(c1cnc(NC(=O)C2(c3ccc4c(c3)OCO4)CC2)s1)N1CCOCC1 (centres unmarked) [Example 394] | < 10 | > 100 | 
O=C(Nc1ncc(Sc2ccccc2)s1)C1(c2ccc3c(c2)OCO3)CC1 [Example 105] | < 10 |  | +++ (“+++” means>100%)
O=C(Nc1ncc(C(c2ccccc2Cl)N2CC[C@@H](O)C2)s1)C1(c2ccc(F)cc2)CC1 (some centres unmarked) [Example 421] | 10 to 25 | > 100 | 
O=C(Nc1ncc([C@H](O)c2ccccc2Cl)s1)C1(c2ccc3c(c2)OCO3)CC1 [Example 323] | < 10 | > 100 | 
COc1ccc(C2(C(=O)Nc3nc(-c4ccccc4)cs3)CC2)cc1 [Example 17] | < 10 | > 100 | 
O=C(Nc1ncc(Cc2ccccc2Cl)s1)C1(c2cccc(O)c2)CC1 [Example 316] | < 10 | 25 to 100 | 
O=C(O)c1ccccc1Sc1cnc(NC(=O)C2(c3ccc4c(c3)OCO4)CC2)s1 [Example 101] | < 10 |  | +++ (“+++” means>100%)
O=C(Nc1ncc(C(c2ccc(Cl)cc2)N2CC[C@@H](O)C2)s1)C1(c2ccc3c(c2)OCO3)CC1 (some centres unmarked) [Example 335] | < 10 | > 100 | 
COC(=O)Cn1cc(Cc2ccccc2Cl)sc1=NC(=O)C1(c2ccc(OC)cc2)CC1 [Example 72] | 25 to 60 |  | ++ (“++” means between 25% to 100%)
O=C(Nc1ncc(C(c2cccc(Cl)c2)N2CC[C@@H](O)C2)s1)C1(c2ccc3c(c2)OCO3)CC1 (some centres unmarked) [Example 343] | < 10 | > 100 | 
O=C(Nc1ncc(C(c2ccccc2Cl)N2CC[C@@H](O)C2)s1)C1(c2cccc(Cl)c2)CC1 (some centres unmarked) [Example 446] | < 10 | > 100 | 
Cc1nn(-c2ccccc2)c(NC(=O)C2(c3ccc4c(c3)OCO4)CC2)c1-c1ccccc1 [Example 291] | 10 to 25 | 25 to 100 | 
O=C(Nc1ncc(C(c2ccccc2)N2CC[C@@H](O)C2)s1)C1(c2ccc3c(c2)OCO3)CC1 (some centres unmarked) [Example 368] | 10 to 25 | > 100 | 
O=C(Nc1ncc(C(c2ccccc2Cl)N2CC[C@@H](O)C2)s1)C1(c2ccccc2Cl)CC1 (some centres unmarked) [Example 419] | < 10 | > 100 | 
COc1ccc(C2(C(=O)Nc3nc4ccc(Cl)cc4s3)CC2)cc1 [Example 47] | < 10 | 25 to 100 | 
Cc1csc(NC(=O)C2(c3ccc4c(c3)OCO4)CC2)c1C(N)=O [Example 289] | < 10 | 25 to 100 | 
O=C(Nc1ncc(C2(c3ccccc3)CCCC2)s1)C1(c2ccc3c(c2)OCO3)CC1 [Example 111] | < 10 |  | +++ (“+++” means>100%)
O=C(Nc1ncc(C(NC[C@@H]2CCCO2)c2ccccc2Cl)s1)C1(c2ccc3c(c2)OCO3)CC1 (some centres unmarked) [Example 434] | < 10 | > 100 | 
COc1ccccc1C(c1cnc(NC(=O)C2(c3ccc4c(c3)OCO4)CC2)s1)N1CCCC1 (centres unmarked) [Example 354] | < 10 | > 100 | 
COc1ccc(C2(C(=O)Nc3ncc(Cc4ncccc4OC)s3)CC2)cc1 [Example 263] | < 10 |  | +++ (“+++” means>100%)
Nc1ccccc1Sc1cnc(NC(=O)C2(c3ccc4c(c3)OCO4)CC2)s1 [Example 98] | < 10 |  | +++ (“+++” means>100%)
CC(C)C[C@H](CO)NC(c1cnc(NC(=O)C2(c3ccc4c(c3)OCO4)CC2)s1)c1cccc2c1OC(F)(F)O2 (some centres unmarked) [Example 498] | < 10 |  | 
O=C(Nc1ncc(C(c2cccc3c2OC(F)(F)O3)N2CC[C@@H](O)C2)s1)C1(c2ccc3c(c2)OCO3)CC1 (some centres unmarked) [Example 496] | < 10 | 25 to 100 | 

Further lines, results first:

EC50 [µM] | Emax [%] | % Activity / % Efficacy (relative efficacy) | SMILES
< 10 | 25 to 100 |  | COc1ccccc1C1(C(=O)Nc2ncc(C(c3ccccc3Cl)N3CC[C@@H](O)C3)s2)CC1 (some centres unmarked) [Example 443]
< 10 | > 100 |  | COc1ccc(C2(C(=O)Nc3ncc(Cc4ccc(Cl)cc4)s3)CC2)cc1 [Example 13]
< 10 | 25 to 100 |  | O=C(Nc1ncc(C(c2ccccc2Cl)N2CC[C@@H](O)C2)s1)C1(c2cccc(C(F)(F)F)c2)CC1 (some centres unmarked) [Example 441]
< 10 |  | ++ (“++” means between 25% to 100%) | COc1ccccc1Cc1cnc(NC(=O)C2(c3ccc4c(c3)OCO4)CC2)o1 [Example 169]
< 10 | > 100 |  | O=C(Nc1ncc(C(Cc2ccccc2Cl)N2CC[C@@H](O)C2)s1)C1(c2ccc3c(c2)OCO3)CC1 (some centres unmarked) [Example 462]
< 10 | 25 to 100 |  | CN(C)CC(=O)Nc1ccc(C2(C(=O)Nc3ncc(Cc4ccccc4Cl)s3)CC2)cc1 [Example 312]
< 10 | > 100 |  | O=C(Nc1ncc(C(c2ccccc2Cl)N2CC[C@@H](O)C2)s1)C1(c2cccc(F)c2)CC1 (some centres unmarked) [Example 447]
< 10 |  | +++ (“+++” means>100%) | O=C(Nc1ncc(Cc2cccc(Cl)c2)o1)C1(c2ccc3c(c2)OCO3)CC1 [Example 166]
< 10 | 25 to 100 |  | CCCN(CCO)C(c1cnc(NC(=O)C2(c3ccc4c(c3)OCO4)CC2)s1)c1ccccc1Cl (centres unmarked) [Example 426]
< 10 | > 100 |  | Cc1ccc(C2(C(=O)Nc3ncc(C(c4ccccc4Cl)N4CC[C@@H](O)C4)s3)CC2)cc1 (some centres unmarked) [Example 422]
< 10 |  | +++ (“+++” means>100%) | COc1ccc(C2(C(=O)Nc3ncc(Sc4cccc(C(=O)O)c4)s3)CC2)cc1 [Example 97]
10 to 25 | 25 to 100 |  | O=C1NOC[C@@H]1NC(c1cnc(NC(=O)C2(c3ccc4c(c3)OCO4)CC2)s1)c1ccccc1Cl (some centres unmarked) [Example 407]
< 10 | > 100 |  | COc1ccccc1C(c1cnc(NC(=O)C2(c3ccc4c(c3)OCO4)CC2)s1)N1CCCCC1 (centres unmarked) [Example 349]
10 to 25 | > 100 |  | O=C(Nc1ncc(C(c2ccccc2)N2CCC(O)CC2)s1)C1(c2ccc3c(c2)OCO3)CC1 (centres unmarked) [Example 351]
< 10 |  | +++ (“+++” means>100%) | O=C(Nc1ncc(Cc2ccccc2Cl)s1)C1(c2ccc(F)c(F)c2)CC1 [Example 199]
< 10 | > 100 |  | COCC1CCCN1C(c1ccccc1)c1cnc(NC(=O)C2(c3ccc4c(c3)OCO4)CC2)s1 (centres unmarked) [Example 355]
< 10 | 25 to 100 |  | CC(C)C[C@@H](CO)NC(c1cnc(NC(=O)C2(c3ccc4c(c3)OCO4)CC2)s1)c1ccccc1Cl (some centres unmarked) [Example 495]
